Active and inactive are the calls of the source. No cut-off for these calls is given here.
Tested on: Mus musculus
Assay: Anticarcinogenic activity in A/J mouse assessed as inhibition of Benzo(a)pyrene-induced tumorigenesis at 0.4 g/kg in diet for 21 days by mouse lung tumor inhibition study
Assay type: functional, organism-based

## O=c1oc2c(O)c(O)cc3c(=O)oc4c(O)c(O)cc1c4c23
  Activity: Active

## CCCCCCCCOc1c(OC(=O)CCCCC)cc2c(=O)oc3c(OCCCCCCCC)c(OC(=O)CCCCC)cc4c(=O)oc1c2c34
  Activity: Active

## CC(=O)OC[C@H]1O[C@@H](Oc2c(OC(C)=O)cc3c(=O)oc4c(O[C@@H]5O[C@H](COC(C)=O)[C@@H](OC(C)=O)[C@H](OC(C)=O)[C@H]5OC(C)=O)c(OC(C)=O)cc5c(=O)oc2c3c45)[C@H](OC(C)=O)[C@@H](OC(C)=O)[C@@H]1OC(C)=O
  Activity: Active

Reference: ChEMBL document CHEMBL1149746, “Synthesis of ellagic acid O-alkyl derivatives and isolation of ellagic acid as a tetrahexanoyl derivative from Fragaria ananassa” (J Nat Prod, 1992)
